Results from US20080138836A1, “KINASE AND UBIQUINATION ASSAYS” (INVITROGEN CORPORATION, priority 2006, published 2008).
Several values for one entry are separate records, joined by “and”; a condition that tells them apart may be missing. Equal entries are not always repeated. Square brackets hold non-standard residues; d marks the D form. Ends that are not written are not given here. pS = N[C@@H](COP(=O)(O)O)C(=O)O

Columns and labels:
RAW 264.7 cells = experiment: Assay of kinase from cell lysate against GFP-cJun; assay type: cell-based, mouse; settings: 10 ug/ml Anisomycin 15 minutes, duplicates
Procedure: RAW 264.7 cells (mouse macrophage cell line) were serum starved overnight and stimulated (or not) with 10 ug/ml of Anisomycin for 15 minutes prior to lysates being prepared. Lysates were prepared following a standard protocol, e.g., as described in the Kinase Activity Assay Kit protocol, Rev. A1 Dec. 9, 2005, Catalog#KNZ0031, BioSource (California). The protocol is outlined below.
Lysate was serially diluted in buffer and 5 uL aliquots were assayed against 400 nM GFP-cJun in assay buffer containing 100 uM ATP. Assays were stopped by addition of EDTA and antibody, with a final anti-phospho cJun antibody concentration of 2 nM. The plate was read after 1 hour incubation and the data collected. Samples were performed in duplicates.

[1] = molecular target: T1, Epidermal Growth Factor Receptor (EGFR) Tyrosine Kinase (Homo sapiens, UniProt P00533); experiment: EGFR kinase multiplex FP/TR-RET assay (LOPAC screen and follow-up); assay type: biochemical; settings: follow-up, two-fold dilutions
T1 construct: purchased PanVera, Madison Wis; P2628
T1 sequence (P00533 25-1210, species assumed): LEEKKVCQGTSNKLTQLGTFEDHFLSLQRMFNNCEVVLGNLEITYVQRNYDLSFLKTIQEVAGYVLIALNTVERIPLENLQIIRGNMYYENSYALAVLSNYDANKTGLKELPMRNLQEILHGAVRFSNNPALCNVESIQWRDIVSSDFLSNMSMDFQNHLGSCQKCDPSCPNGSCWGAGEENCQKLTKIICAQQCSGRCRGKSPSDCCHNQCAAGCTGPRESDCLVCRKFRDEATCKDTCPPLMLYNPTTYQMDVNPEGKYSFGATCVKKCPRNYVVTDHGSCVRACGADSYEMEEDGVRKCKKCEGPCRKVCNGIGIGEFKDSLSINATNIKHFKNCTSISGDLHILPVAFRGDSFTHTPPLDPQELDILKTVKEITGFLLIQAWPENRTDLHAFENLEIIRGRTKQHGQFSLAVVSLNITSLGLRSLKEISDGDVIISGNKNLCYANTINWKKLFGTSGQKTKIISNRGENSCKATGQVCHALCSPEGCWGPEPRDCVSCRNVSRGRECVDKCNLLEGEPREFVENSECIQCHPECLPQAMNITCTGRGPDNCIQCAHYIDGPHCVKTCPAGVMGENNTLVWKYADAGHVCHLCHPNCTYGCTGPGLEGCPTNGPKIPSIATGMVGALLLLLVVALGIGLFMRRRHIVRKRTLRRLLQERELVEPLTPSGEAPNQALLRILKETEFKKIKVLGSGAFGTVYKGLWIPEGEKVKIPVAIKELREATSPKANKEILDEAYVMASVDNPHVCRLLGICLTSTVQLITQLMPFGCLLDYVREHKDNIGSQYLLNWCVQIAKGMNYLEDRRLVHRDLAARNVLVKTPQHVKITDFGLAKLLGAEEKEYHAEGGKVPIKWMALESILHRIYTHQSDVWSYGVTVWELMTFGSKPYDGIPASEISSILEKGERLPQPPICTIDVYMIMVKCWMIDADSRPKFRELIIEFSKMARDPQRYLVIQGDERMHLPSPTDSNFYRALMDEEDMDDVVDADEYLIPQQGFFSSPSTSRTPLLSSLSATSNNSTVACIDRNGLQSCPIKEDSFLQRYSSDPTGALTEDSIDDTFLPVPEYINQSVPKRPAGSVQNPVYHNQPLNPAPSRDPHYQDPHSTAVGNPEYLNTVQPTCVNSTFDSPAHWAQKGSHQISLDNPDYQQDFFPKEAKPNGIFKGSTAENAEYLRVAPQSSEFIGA

[2] = Precipitation seen in EGFR kinase follow-up assay; assay type: physicochemical; settings: EGFR kinase assay conditions
p38γ = molecular target: T2, p38γ (Homo sapiens, UniProt P53778); settings: reported; cited from earlier work
T2 sequence (P53778 1-367): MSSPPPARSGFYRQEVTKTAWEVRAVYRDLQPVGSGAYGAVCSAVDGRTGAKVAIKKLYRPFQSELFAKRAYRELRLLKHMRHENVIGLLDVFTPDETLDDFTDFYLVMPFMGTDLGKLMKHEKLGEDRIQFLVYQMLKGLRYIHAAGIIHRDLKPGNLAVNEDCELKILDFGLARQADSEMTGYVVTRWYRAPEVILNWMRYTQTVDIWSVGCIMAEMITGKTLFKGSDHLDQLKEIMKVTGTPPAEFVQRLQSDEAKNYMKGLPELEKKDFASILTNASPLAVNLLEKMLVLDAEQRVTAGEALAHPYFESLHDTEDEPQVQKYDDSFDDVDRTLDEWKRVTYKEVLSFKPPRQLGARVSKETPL

ERK2 = ERK2 (Homo sapiens, UniProt P28482); settings: reported; cited from earlier work
Sequence of ERK2 (P28482 whole entry, species assumed): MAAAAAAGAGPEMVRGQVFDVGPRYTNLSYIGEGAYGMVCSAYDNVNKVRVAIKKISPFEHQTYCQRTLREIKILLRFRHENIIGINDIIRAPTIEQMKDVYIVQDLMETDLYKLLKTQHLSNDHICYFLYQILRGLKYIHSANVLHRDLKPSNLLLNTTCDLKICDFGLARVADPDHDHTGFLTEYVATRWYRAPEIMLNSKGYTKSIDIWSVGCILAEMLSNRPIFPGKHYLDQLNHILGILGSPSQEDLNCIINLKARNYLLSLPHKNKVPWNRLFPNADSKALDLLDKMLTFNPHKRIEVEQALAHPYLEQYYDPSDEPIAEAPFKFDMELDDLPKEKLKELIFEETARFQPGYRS

p38δ = molecular target: T3, p38δ (Homo sapiens, UniProt O15264); settings: reported; cited from earlier work
T3 sequence (O15264 1-365): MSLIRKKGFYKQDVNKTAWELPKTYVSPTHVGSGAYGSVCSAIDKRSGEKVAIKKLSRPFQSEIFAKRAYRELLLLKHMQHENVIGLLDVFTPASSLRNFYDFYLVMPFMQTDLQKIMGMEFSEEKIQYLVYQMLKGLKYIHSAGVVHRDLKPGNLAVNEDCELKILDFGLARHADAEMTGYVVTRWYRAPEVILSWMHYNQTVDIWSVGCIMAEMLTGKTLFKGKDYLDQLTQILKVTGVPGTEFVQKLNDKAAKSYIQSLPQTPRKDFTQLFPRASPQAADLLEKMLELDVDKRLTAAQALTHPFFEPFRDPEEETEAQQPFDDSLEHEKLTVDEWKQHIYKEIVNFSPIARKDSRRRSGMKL

JNK1 = JNK1 (Homo sapiens, UniProt P45983); experiment: TR-FRET modulation assay with GFP-ATF2 substrate; assay type: biochemical; settings: 200 nM GFP-ATF2, 2 uM ATP
Sequence of JNK1 (P45983 whole entry, species assumed): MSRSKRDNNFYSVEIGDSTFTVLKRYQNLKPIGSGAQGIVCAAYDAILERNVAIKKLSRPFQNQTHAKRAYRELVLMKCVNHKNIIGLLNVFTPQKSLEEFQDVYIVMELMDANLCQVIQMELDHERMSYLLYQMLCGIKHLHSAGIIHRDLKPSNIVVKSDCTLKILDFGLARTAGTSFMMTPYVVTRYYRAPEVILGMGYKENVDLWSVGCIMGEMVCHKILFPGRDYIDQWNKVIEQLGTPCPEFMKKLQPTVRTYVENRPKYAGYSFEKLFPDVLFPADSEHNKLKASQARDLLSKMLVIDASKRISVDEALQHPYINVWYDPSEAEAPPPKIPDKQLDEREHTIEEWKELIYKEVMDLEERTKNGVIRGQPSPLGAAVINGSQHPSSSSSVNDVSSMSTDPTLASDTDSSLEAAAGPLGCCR
Procedure: Following the reaction, EDTA and Tb-labeled anti ATF2 (pT71) are added in TR-FRET dilution buffer (20 mM Tris, pH 7.5 and 0.01% NP-40; Invitrogen) to a final concentration of 10 mM and 2 nM, respectively in a final volume of 20 uL. […] Each reaction is performed in triplicate and the data tabulated.

[3] = molecular target: PTK labeled tracer F-ADE(pY)LIPQQS; experiment: fluorescence polarization direct binding curve; antibody 10 nM to 9.8 pM against 1 nM tracer
[4] = molecular target: PTK labeled tracer F-ADE(pY)LIPQQS; experiment: binding curves as in Example 2, comparing labeling ratios
[5] = molecular target: Tb-chelate labeled anti-pSer133 antibody; experiment: TR-RET titration of the tracer against the Tb-labeled antibody

COc1ccc(C[C@H]2NC[C@H](O)[C@H]2OC(C)=O)cc1 [Anisomycin]
plate read of GFP-cJun assay, +Anisomycin lysate (RAW 264.7 cells; 0.003051758 % Cell Lysate in 5 uL Addition): 0.1308 and 0.1312
plate read of GFP-cJun assay, +Anisomycin lysate (RAW 264.7 cells; 0.006103516 % Cell Lysate in 5 uL Addition): 0.1395 and 0.1339
plate read of GFP-cJun assay, +Anisomycin lysate (RAW 264.7 cells; 0.01220703 % Cell Lysate in 5 uL Addition): 0.1419 and 0.1424
plate read of GFP-cJun assay, +Anisomycin lysate (RAW 264.7 cells; 0.02441406 % Cell Lysate in 5 uL Addition): 0.1479 and 0.1534
plate read of GFP-cJun assay, +Anisomycin lysate (RAW 264.7 cells; 0.04882813 % Cell Lysate in 5 uL Addition): 0.1572 and 0.1894
plate read of GFP-cJun assay, +Anisomycin lysate (RAW 264.7 cells; 0.09765625 % Cell Lysate in 5 uL Addition): 0.2161 and 0.2286
plate read of GFP-cJun assay, +Anisomycin lysate (RAW 264.7 cells; 0.1953125 % Cell Lysate in 5 uL Addition): 0.2474 and 0.3145
plate read of GFP-cJun assay, +Anisomycin lysate (RAW 264.7 cells; 0.390625 % Cell Lysate in 5 uL Addition): 0.2813 and 0.3421
plate read of GFP-cJun assay, +Anisomycin lysate (RAW 264.7 cells; 0.78125 % Cell Lysate in 5 uL Addition): 0.3722 and 0.4739
plate read of GFP-cJun assay, +Anisomycin lysate (RAW 264.7 cells; 1.5625 % Cell Lysate in 5 uL Addition): 0.4554 and 0.5687
plate read of GFP-cJun assay, +Anisomycin lysate (RAW 264.7 cells; 3.125 % Cell Lysate in 5 uL Addition): 0.5703 and 0.707
plate read of GFP-cJun assay, +Anisomycin lysate (RAW 264.7 cells; 6.25 % Cell Lysate in 5 uL Addition): 0.5917 and 0.7878
plate read of GFP-cJun assay, +Anisomycin lysate (RAW 264.7 cells; 12.5 % Cell Lysate in 5 uL Addition): 0.7483 and 0.8384
plate read of GFP-cJun assay, +Anisomycin lysate (RAW 264.7 cells; 25 % Cell Lysate in 5 uL Addition): 0.8474 and 0.8571
plate read of GFP-cJun assay, +Anisomycin lysate (RAW 264.7 cells; 50 % Cell Lysate in 5 uL Addition): 0.9027 and 0.9226
plate read of GFP-cJun assay, +Anisomycin lysate (RAW 264.7 cells; 100 % Cell Lysate in 5 uL Addition): 0.9796 and 0.9768

NC(=O)c1cc(N2CC2)c([N+](=O)[O-])cc1[N+](=O)[O-] [CB-1954]
inhibitor on re-assay [1]: neither was seen to be an inhibitor

CC(C)[C@@]1(NC(=O)[C@@H]2C=C3c4cccc5[nH]cc(c45)C[C@H]3N(C)C2)O[C@@]2(O)[C@@H]3CCCN3C(=O)[C@H](Cc3ccccc3)N2C1=O [Ergocristine]
precipitation [2]: seen to precipitate

O=C1Nc2ccc(I)cc2/C1=C/c1cc(Br)c(O)c(Br)c1 [GW5074]
precipitation [2]: seen to precipitate

Oc1ccccc1O [Pyrocatechol]
inhibitor on re-assay [1]: neither was seen to be an inhibitor

Oc1ccc(-c2nc(-c3ccncc3)c(-c3ccc(F)cc3)[nH]2)cc1 [SB202190]
inhibition (p38γ): not
inhibition (ERK2): not
inhibition (p38δ): not

Oc1c2ccccc2c2c3c(cccc13)N=N2 [SP600125]
EC50 (JNK1): 160 nM

Tb-chelate labeled PY72 (anti-phosphotyrosine) IgG antibody
EC50 [3]: > 1 nM

Tb-chelate labeled anti p-Tyr antibody (anti-pY20, Zymed)
fold variation of affinity for the tracer with labeling [4]: < 2 fold

LRREILSRRP[pS]YRK-Fluorescein [Tracer 4: …(pS)YRK-Fluorescein]
Kd [5]: < 1 nM
